Test results taken from ChEMBL document CHEMBL1275453, “Resistance trends of the Bacteroides fragilis group over a 10-year period, 1997 to 2006, in Madrid, Spain” (2008).
≈ marks a conversion by molar mass, not a printed value.

Assays:
Type in all cases: functional
[1] = test system: Parabacteroides distasonis; test: Antibacterial activity against Bacteroides distasonis assessed as percent resistant isolates by agar dilution method in presence of clavulanate
[2] = test system: Bacteroides ovatus; test: Antibacterial activity against Bacteroides ovatus assessed as percent resistant isolates by agar dilution method in presence of clavulanate
[3] = test system: Bacteroides sp.; test: Antibacterial activity against Bacteroides spp. assessed as percent resistant isolates by agar dilution method in presence of clavulanate; conditions: pooled result: one value given for 4 cell lines, strains, targets or settings
[4] = test system: Bacteroides caccae; test: Antibacterial activity against Bacteroides caccae assessed as percent resistant isolates by agar dilution method in presence of clavulanate
[5] = test system: Phocaeicola vulgatus; test: Antibacterial activity against Bacteroides vulgatus assessed as percent resistant isolates by agar dilution method in presence of clavulanate
[6] = test system: Bacteroides uniformis; test: Antibacterial activity against Bacteroides uniformis assessed as percent resistant isolates by agar dilution method in presence of clavulanate
[7] = test system: Bacteroides thetaiotaomicron; test: Antibacterial activity against Bacteroides thetaiotaomicron assessed as percent resistant isolates by agar dilution me in presence of clavulanate thod
[8] = test system: Bacteroides fragilis; test: Antibacterial activity against Bacteroides fragilis assessed as percent resistant isolates by agar dilution method in presence of clavulanate
[9] = test system: Bacteroides stercoris; test: Antibacterial activity against Bacteroides stercoris isolate by agar dilution method in presence of clavulanate
[10] = test system: Parabacteroides merdae; test: Antibacterial activity against Bacteroides merdae isolate by agar dilution method in presence of clavulanate
[11] = test system: Bacteroides eggerthii; test: Antibacterial activity against Bacteroides eggerthii isolate by agar dilution method in presence of clavulanate
[12] = test system: Bacteroides sp.; test: Antibacterial activity against Bacteroides spp. isolate by agar dilution method in presence of clavulanate
[13] = test system: Bacteroides ovatus; test: Antibacterial activity against Bacteroides ovatus isolate by agar dilution method in presence of clavulanate
[14] = test system: Parabacteroides distasonis; test: Antibacterial activity against Bacteroides distasonis isolate by agar dilution method in presence of clavulanate
[15] = test system: Bacteroides caccae; test: Antibacterial activity against Bacteroides caccae isolate by agar dilution method in presence of clavulanate
[16] = test system: Phocaeicola vulgatus; test: Antibacterial activity against Bacteroides vulgatus isolate by agar dilution method in presence of clavulanate
[17] = test system: Bacteroides uniformis; test: Antibacterial activity against Bacteroides uniformis isolate by agar dilution method in presence of clavulanate
[18] = test system: Bacteroides thetaiotaomicron; test: Antibacterial activity against Bacteroides thetaiotaomicron isolate by agar dilution method in presence of clavulanate
[19] = test system: Bacteroides fragilis; test: Antibacterial activity against Bacteroides fragilis isolate by agar dilution method in presence of clavulanate
[20] = test system: Bacteroides fragilis; test: Antibacterial activity against Bacteroides fragilis assessed as percent resistant isolates
[21] = test system: Phocaeicola vulgatus; test: Antibacterial activity against Bacteroides vulgatus assessed as percent resistant isolates
[22] = test system: Bacteroides stercoris; test: Antibacterial activity against Bacteroides stercoris assessed as percent resistant isolates by agar dilution method; conditions: pooled result: one value given for 4 cell lines, strains, targets or settings
[23] = test system: Bacteroides ovatus; test: Antibacterial activity against Bacteroides ovatus assessed as percent resistant isolates by agar dilution method
[24] = test system: Parabacteroides distasonis; test: Antibacterial activity against Bacteroides distasonis assessed as percent resistant isolates by agar dilution method
[25] = test system: Bacteroides caccae; test: Antibacterial activity against Bacteroides caccae assessed as percent resistant isolates by agar dilution method
[26] = test system: Phocaeicola vulgatus; test: Antibacterial activity against Bacteroides vulgatus assessed as percent resistant isolates by agar dilution method
[27] = test system: Bacteroides uniformis; test: Antibacterial activity against Bacteroides uniformis assessed as percent resistant isolates by agar dilution method
[28] = test system: Bacteroides thetaiotaomicron; test: Antibacterial activity against Bacteroides thetaiotaomicron assessed as percent resistant isolates by agar dilution method
[29] = test system: Bacteroides fragilis; test: Antibacterial activity against Bacteroides fragilis assessed as percent resistant isolates by agar dilution method
[30] = test system: Bacteroides stercoris; test: Antibacterial activity against Bacteroides stercoris isolate by agar dilution method
[31] = test system: Parabacteroides merdae; test: Antibacterial activity against Bacteroides merdae isolate by agar dilution method
[32] = test system: Bacteroides eggerthii; test: Antibacterial activity against Bacteroides eggerthii isolate by agar dilution method
[33] = test system: Bacteroides sp.; test: Antibacterial activity against Bacteroides spp. isolate by agar dilution method
[34] = test system: Bacteroides ovatus; test: Antibacterial activity against Bacteroides ovatus isolate by agar dilution method
[35] = test system: Parabacteroides distasonis; test: Antibacterial activity against Bacteroides distasonis isolate by agar dilution method
[36] = test system: Phocaeicola vulgatus; test: Antibacterial activity against Bacteroides vulgatus isolate by agar dilution method
[37] = test system: Bacteroides caccae; test: Antibacterial activity against Bacteroides caccae isolate by agar dilution method
[38] = test system: Bacteroides uniformis; test: Antibacterial activity against Bacteroides uniformis isolate by agar dilution method
[39] = test system: Bacteroides thetaiotaomicron; test: Antibacterial activity against Bacteroides thetaiotaomicron isolate by agar dilution method

Compound: CC1(C)S[C@@H]2[C@H](NC(=O)[C@H](N)c3ccc(O)cc3)C(=O)N2[C@H]1C(=O)O [AMOXICILLIN]
- Activity [1]: 16.3%
- Activity [2]: 17.1%
- Activity [3]: 19.6%
- Activity [4]: 20%
- Activity [5]: 21.3%
- Activity [6]: 12.3%
- Activity [7]: 4.9%
- Activity [8]: 6.2%
- MIC50 [9]: 2 µg/mL
- MIC90 [9]: 16 µg/mL
- MIC50 [10]: 2 µg/mL
- MIC90 [10]: 16 µg/mL
- MIC50 [11]: 2 µg/mL
- MIC90 [11]: 16 µg/mL
- MIC50 [12]: 2 µg/mL
- MIC90 [12]: 16 µg/mL
- MIC50 [13]: 1 µg/mL
- MIC90 [13]: 16 µg/mL
- MIC50 [14]: 4 µg/mL
- MIC90 [14]: 16 µg/mL
- MIC50 [15]: 2 µg/mL
- MIC90 [15]: 16 µg/mL
- MIC50 [16]: 2 µg/mL
- MIC90 [16]: 16 µg/mL
- MIC50 [17]: 1 µg/mL
- MIC90 [17]: 16 µg/mL
- MIC50 [18]: 2 µg/mL
- MIC90 [18]: 16 µg/mL
- MIC50 [19]: 1 µg/mL
- MIC90 [19]: 8 µg/mL

Compound: COc1c(N2C[C@@H]3CCCN[C@@H]3C2)c(F)cc2c(=O)c(C(=O)O)cn(C3CC3)c12 [MOXIFLOXACIN]
- Activity [20]: 27.3%
- Activity [21]: 54.7%
- Activity [22]: 28.3%
- Activity [23]: 24.4%
- Activity [24]: 18.6%
- Activity [25]: 22.2%
- Activity [26]: 17%
- Activity [27]: 24.5%
- Activity [28]: 17%
- Activity [29]: 9.7%
- MIC50 [30]: 2 µg/mL (≈ 4.98 µM)
- MIC90 [30]: 16 µg/mL (≈ 39.9 µM)
- MIC50 [31]: 2 µg/mL (≈ 4.98 µM)
- MIC90 [31]: 16 µg/mL (≈ 39.9 µM)
- MIC50 [32]: 2 µg/mL (≈ 4.98 µM)
- MIC90 [32]: 16 µg/mL (≈ 39.9 µM)
- MIC50 [33]: 2 µg/mL (≈ 4.98 µM)
- MIC90 [33]: 16 µg/mL (≈ 39.9 µM)
- MIC50 [34]: 2 µg/mL (≈ 4.98 µM)
- MIC90 [34]: 32 µg/mL (≈ 79.7 µM)
- MIC50 [35]: 1 µg/mL (≈ 2.49 µM)
- MIC90 [35]: 16 µg/mL (≈ 39.9 µM)
- MIC50 [36]: 2 µg/mL (≈ 4.98 µM)
- MIC90 [36]: 16 µg/mL (≈ 39.9 µM)
- MIC50 [37]: 2 µg/mL (≈ 4.98 µM)
- MIC90 [37]: 32 µg/mL (≈ 79.7 µM)
- MIC50 [38]: 2 µg/mL (≈ 4.98 µM)
- MIC90 [38]: 32 µg/mL (≈ 79.7 µM)
- MIC50 [39]: 2 µg/mL (≈ 4.98 µM)
- MIC90 [39]: 16 µg/mL (≈ 39.9 µM)
